pEC50: −log10 of the molar value. Values after ≈ are worked out from the molar mass of the structure shown. Read-outs that look alike come from different tables or passages of the source.
Tests used:
[1] = amide bond, 24-membered ring
[2] = system: microfilaria of Dirofilaria immitis; test: Screening method to test activity against microfilaria of Dirofilaria immitis (survival, microtitre plate); type: cell-based; conditions: 72 h, read-out: median EC50 value
[3] = system: Haemonchus contortus L1 larvae; test: Screening method to test activity against Haemonchus contortus (L1 larval development, microtitre plate); conditions: 96 h; for MIC90: read-out: median MIC90 value; for pEC50: read-out: median EC50 value
Procedure: METHOD A: Screening method to test activity of compounds against Haemonchus contortus.
Twenty L1 Haemonchus contortus larvae were added to wells of a microtitre plate containing a nutrient medium and the test compound in DMSO. An analysis was conducted at 4 days to determine the extent of development of the larvae. Larvae exposed to DMSO alone served as controls.
The EC50 and MIC90 recordings were obtained using different instruments.

Compound: CC(C)C[C@H]1C(=O)O[C@H](C)C(=O)N(C)[C@@H](CC(C)(C)F)C(=O)O[C@H](Cc2ccc(C3CCOCC3)cc2)C(=O)N(C)C2(CC2)C(=O)O[C@H](C)C(=O)N(C)[C@@H](CC(C)(C)F)C(=O)O[C@H](Cc2ccc(C3CCOCC3)cc2)C(=O)N1C
- ring closure, yield after HPLC ([1]; from H-MeAcc(1-aminocyclopropanecarboxylic)-dLac-MeLeu(4-F)-dPhLac(4-oxan-4-yl)-MeLeu-dLac-MeLeu(4-F)-dPhLac(4-oxan-4-yl)-OH, BOP-Cl/DIEA, DCM, 0.87 mM): 39%

Compound: CN1C(=O)COC(=O)[C@H](CC2CC2)N(C)C(=O)[C@@H](Cc2ccc(C3CCOCC3)cc2)OC(=O)[C@H](CC(C)(C)F)N(C)C(=O)COC(=O)[C@H](CC2CC2)N(C)C(=O)[C@@H](Cc2ccc(C3CCOCC3)cc2)OC(=O)[C@@H]1CC(C)(C)F
- ring closure, yield after HPLC ([1]; from H-MeLeu(4-F)-dPhLac(4-oxan-4-yl)-MeAla(3-cyclopropyl)-Glycolic-MeLeu(4-F)-dPhLac(4-oxan-4-yl)-MeAla(3-cyclopropyl)-Glycolic-OH, BOP-Cl/DIEA, DCM, 2.57 mM): 33%

Compound: C[C@H]1OC(=O)[C@H](CC2CC2)N(C)C(=O)[C@@H](Cc2ccc(N3CCOCC3)cc2)OC(=O)[C@H](CC2CC2)N(C)C(=O)[C@@H](C)OC(=O)[C@H](CC2CC2)N(C)C(=O)[C@@H](Cc2ccc(N3CCOCC3)cc2)OC(=O)[C@H](CC2CC2)N(C)C1=O [Compound 6-1A, (3S,6R,9S,12R,15S,18R,21S,24R)-3,9,15,21-tetrakis(cyclopropylmethyl)-4,10,12,16,22,24-hexamethyl-6,18-bis([[4-(morpholin-4-yl)phenyl]methyl])-1,7,13,19-tetraoxa-4,10,16,22-tetraazacyclotetracosan-2,5,8,11,14,17,20,23-octone]
- ring closure, yield after HPLC ([1]; from H-MeAla(cyclopropyl)-dPhLac(4-morpholino)-MeAla(cyclopropyl)-dLac-MeAla(cyclopropyl)-dPhLac(4-morpholino)-MeAla(cyclopropyl)-dLac-OH, BOP-Cl/DIEA, DCM, 1.5 mM): 13%
- pEC50 [2]: 6.00 to 7.00
- MIC90 [3]: 1 to 10 µM (≈ 1.11 to 11.1 µg/mL)

Compound: CC(C)C[C@H]1C(=O)O[C@H](C)C(=O)N(C)[C@@H](CC2CC2)C(=O)O[C@H](Cc2ccc(N3CCOCC3)cc2)C(=O)N(C)[C@@H](CC(C)C)C(=O)O[C@H](C)C(=O)N(C)[C@@H](CC2CC2)C(=O)O[C@H](Cc2ccc(N3CCOCC3)cc2)C(=O)N1C [Compound 6-7A, (3S,6R,9S,12R,15S,18R,21S,24R)-3,15-bis(cyclopropylmethyl)-4,6,10,16,18,22-hexamethyl-9,21-bis(2-methylpropyl)-12,24-bis([[4-(morpholin-4-yl)phenyl]methyl])-1,7,13,19-tetraoxa-4,10,16,22-tetraazacyclotetracosan-2,5,8,11,14,17,20,23-octone]
- ring closure, yield after HPLC ([1]; from H-MeAla(cyclopropyl)-dPhLac(4-morpholino)-MeLeu-dLac-MeAla(cyclopropyl)-dPhLac(4-morpholino)-MeLeu-dLac-OH, BOP-Cl/DIEA, DCM, 3.2 mM): 8%
- pEC50 [2]: 6.00 to 7.00
- MIC90 [3]: 0.1 to 1 µM (≈ 0.112 to 1.12 µg/mL)

Compound: C[C@H]1OC(=O)[C@H](CC2CC2)N(C)C(=O)[C@@H](Cc2ccc(C3CCOCC3)cc2)OC(=O)[C@H](CC(C)(C)F)N(C)C(=O)[C@@H](C)OC(=O)[C@H](CC2CC2)N(C)C(=O)[C@@H](Cc2ccc(C3CCOCC3)cc2)OC(=O)[C@H](CC(C)(C)F)N(C)C1=O [Compound 7-34A, (3S,6R,9S,12R,15S,18R,21S,24R)-3,15-bis(cyclopropylmethyl)-9,21-bis(2-fluoro-2-methylpropyl)-4,-10,12,16,22,24-hexamethyl-6,18-bis([[4-(oxan-4-yl)phenyl]methyl])-1,7,13,19-tetraoxa-4,10,16,22-te-traazacyclotetracosan-2,5,8,11,14,17,20,23-octone]
- ring closure, yield after HPLC ([1]; from H-MeLeu(4-F)-dPhLac(4-oxan-4-yl)-MeAla(3-cyclopropyl)-dLac-MeLeu(4-F)-dPhLac(4-oxan-4-yl)-MeAla(3-cyclopropyl)-dLac-OH, BOP-Cl/DIEA, DCM, 2.75 mM): 14%
- pEC50 [2]: > 7.00
- pEC50 [3]: > 7.00
- MIC90 [3]: < 0.1 µM

Compound: CC(C)C[C@H]1C(=O)O[C@H](C)C(=O)N(C)[C@@H](CC2CC2)C(=O)O[C@H](Cc2ccc(N3CCOCC3)nc2)C(=O)N(C)[C@@H](CC(C)C)C(=O)O[C@H](C)C(=O)N(C)[C@@H](CC2CC2)C(=O)O[C@H](Cc2ccc(N3CCOCC3)nc2)C(=O)N1C [Compound 9-7A, (3S,6R,9S,12R,15S,18R,21S,24R)-3,15-bis(cyclopropylmethyl)-4,6,10,16,18,22-hexamethyl-9,21-bis(2-methylpropyl)-12,24-bis([[6-(morpholin-4-yl)pyridin-3-yl]methyl])-1,7,13,19-tetraoxa-4,10,16,22-tetraazacyclotetracosan-2,5,8,11,14,17,20,23-octone]
- ring closure, yield after HPLC ([1]; from H-MeAla(cyclopropyl)-dLac(3-[6-(morpholin-4-yl)pyridin-3-yl])-MeLeu-dLac-MeAla(cyclopropyl)-dLac(3-[6-(morpholin-4-yl)pyridin-3-yl])-MeLeu-dLac-OH?, BOP-Cl/DIEA, DCM, 4.2 mM): 12%
- pEC50 [2]: 5.00 to 6.00

Compound: C[C@H]1OC(=O)C2(CC2)N(C)C(=O)[C@@H](Cc2ccc(C3CCOCC3)cc2)OC(=O)[C@H](CC(C)(C)F)N(C)C(=O)[C@@H](C)OC(=O)C2(CC2)N(C)C(=O)[C@@H](Cc2ccc(C3CCOCC3)cc2)OC(=O)[C@H](CC(C)(C)F)N(C)C1=O [Compound 969-34A, (6R,9S,12R,20R,23S,26R)-9,23-bis(2-fluoro-2-methylpropyl)-4,10,12,18,24,26-hexamethyl-6,20-bis([[4-(oxan-4-yl)phenyl]methyl])-7,13,21,27-tetraoxa-4,10,18,24-tetraazadispiro[2.11.2^[15].11^[3]]octacosan-5,8,11,14,19,22,25,28-octone]
- ring closure, yield after HPLC ([1]; from H-MeAcc(1-aminocyclopropanecarboxylic)-dLac-MeLeu(4-F)-dPhLac(4-oxan-4-yl)-MeAcc(1-aminocyclopropanecarboxylic)-dLac-MeLeu(4-F)-dPhLac(4-oxan-4-yl)-OH, BOP-Cl/DIEA, DCM, 3.2 mM): 29%
- pEC50 [2]: 5.00 to 6.00
- pEC50 [3]: 5.00 to 6.00

Compound: (3S,6R,9S,12R,15S,18R,21S,24R)-3,15-bis(cyclopropylmethyl)-9,21-bis(2-fluoro-2-methylpropyl)-4,10,12,16,22,24-hexamethyl-6,18-bis([[4-(morpholin-4-yl)phenyl]methyl])-1,7,13,19-tetraoxa-4,10,16,22-tetraazacyclotetracosan-2,5,8,11,14,17,20,23-octone
- ring closure, yield after HPLC ([1]; DIEA): 24%
